From patent US8334315B2, “Substituted aromatic carboxamide and urea derivatives as vanilloid receptor ligands” (Gruenenthal GmbH, priority 2009, dated 2012)

Target: T1, hVR1 (Homo sapiens, UniProt Q8NER1)
T1 construct: expressed in transfected cells; host or cells: CHO K1 cells (ECACC), stably transfected
Assay: Functional test on VR1, FLIPR Ca2+ influx in transfected CHO K1 cells, capsaicin
Type: cell-based, human being
Set-up: key to Ki (human being) [nM] Cap: agonist / partial agonist / no effect: AG=agonist; pAG=partial agonist; NE=no effect
Conditions: for Ki: capsaicin (Cap), includes values given in brackets after pAG, read-out: Ki (human being) [nM] Cap
Description: In the process, the Ca^2+ influx is quantified in the FLIPR assay with the aid of a Ca^2+-sensitive dye (type Fluo-4, Molecular Probes Europe BV, Leiden, the Netherlands) in a fluorescent imaging plate reader (FLIPR, Molecular Devices, Sunnyvale, USA), as described hereinafter.
II. Functional Tests Carried Out on the Vanilloid Receptor (VR1)
The agonistic or antagonistic effect of the substances to be tested on the vanilloid receptor 1 (VR1) can also be determined using the following assay. In this assay, the influx of Ca^2+ through the channel is quantified with the aid of a Ca^2+-sensitive dye (type Fluo-4, Molecular Probes Europe BV, Leiden, the Netherlands) in a fluorescent imaging plate reader (FLIPR, Molecular Devices, Sunnyvale, USA).
Chinese hamster ovary cells (CHO K1 cells, European Collection of Cell Cultures (ECACC) United Kingdom) are stably transfected with the VR1 gene. For functional testing, these cells are plated out on poly-D-lysine-coated black 96-well plates having a clear base (BD Biosciences, Heidelberg, Germany) at a density of 25,000 cells/well. The cells are incubated overnight at 37° C. and 5% CO2 in a culture medium (Ham's F12 nutrient mixture, 10% by volume of FCS (foetal calf serum), 18 μg/ml of L-proline). The next day the cells are incubated with Fluo-4 (Fluo-4 2 μM, 0.01% by volume of Pluronic F127, Molecular Probes in HBSS (Hank's buffered saline solution), Gibco Invitrogen GmbH, Karlsruhe, Germany) for 30 minutes at 37° C. Subsequently, the plates are washed three times with HBSS buffer and after further incubation for 15 minutes at RT used for Ca^2+ measurement in a FLIPR assay. The Ca^2+-dependent fluorescence is measured before and after the addition of the substances to be tested (λex wavelength=488 nm, λem=540 nm). Quantification is carried out by measuring the highest fluorescence intensity (FC, fluorescence counts) over time.
The FLIPR protocol consists of 2 substance additions. First the compounds to be tested (10 μM) are pipetted onto the cells and the Ca^2+ influx is compared with the control (capsaicin 10 μM) (% activation based on the Ca^2+ signal after the addition of 10 μM of capsaicin). After 5 minutes' incubation, 100 nM of capsaicin are applied and the Ca^2+ influx is also determined.
Desensitising agonists and antagonists led to suppression of the Ca^2+ influx. The % inhibition is calculated compared to the maximum achievable inhibition with 10 μM of capsaicin.
Starting from the percentage displacement caused by different concentrations of the compounds to be tested of general formula I, IC50 inhibitory concentrations which cause a 50-per cent displacement of capsaicin were calculated. Ki values for the test substances were obtained by conversion by means of the Cheng-Prusoff equation (Cheng, Prusoff; Biochem. Pharmacol. 22, 3099-3108, 1973).
The affinity of the compounds according to the invention for the vanilloid receptor 1 (VR1/TRPV1 receptor) was determined as described hereinbefore (pharmacological methods I and II respectively).

T1 sequence (Q8NER1 whole entry): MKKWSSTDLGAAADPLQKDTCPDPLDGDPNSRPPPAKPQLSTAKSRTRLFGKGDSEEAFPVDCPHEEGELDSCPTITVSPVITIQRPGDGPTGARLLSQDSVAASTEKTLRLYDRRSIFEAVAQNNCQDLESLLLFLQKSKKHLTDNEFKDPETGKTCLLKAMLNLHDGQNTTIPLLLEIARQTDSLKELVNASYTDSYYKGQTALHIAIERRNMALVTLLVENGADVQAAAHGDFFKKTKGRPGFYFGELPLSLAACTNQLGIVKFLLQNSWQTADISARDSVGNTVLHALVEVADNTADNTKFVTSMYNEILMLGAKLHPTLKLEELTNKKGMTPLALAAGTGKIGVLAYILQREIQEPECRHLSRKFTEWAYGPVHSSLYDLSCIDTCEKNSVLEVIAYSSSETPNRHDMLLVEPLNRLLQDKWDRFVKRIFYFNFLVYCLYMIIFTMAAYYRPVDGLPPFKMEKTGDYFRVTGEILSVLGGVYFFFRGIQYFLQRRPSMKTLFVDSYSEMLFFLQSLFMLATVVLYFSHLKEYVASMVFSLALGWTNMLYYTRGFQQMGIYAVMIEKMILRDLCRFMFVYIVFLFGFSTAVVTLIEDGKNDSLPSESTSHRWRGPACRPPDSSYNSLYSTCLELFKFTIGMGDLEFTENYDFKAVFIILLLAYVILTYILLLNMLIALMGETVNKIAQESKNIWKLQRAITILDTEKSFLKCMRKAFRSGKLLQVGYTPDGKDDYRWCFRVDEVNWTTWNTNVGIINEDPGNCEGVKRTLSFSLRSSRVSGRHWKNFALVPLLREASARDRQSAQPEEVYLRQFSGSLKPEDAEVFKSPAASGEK

Ki [nM]	Ki (human being) [nM] Cap: agonist / partial agonist / no effect	SMILES
70.2	–	O=C(NCc1cc(C(F)(F)F)nn1-c1ccc(F)cc1)Nc1ccc2c(c1)CCC2 [Example 175, 1-(2,3-dihydro-1H-inden-5-yl)-3-((1-(4-fluorophenyl)-3-(trifluoromethyl)-1H-pyrazol-5-yl)methyl)urea]
28.4	–	CC(C(=O)NCc1cc(C2CC2)nn1-c1cccc(Cl)c1)c1ccc2c(c1)OCO2 (stereo not shown) [Example 183, 2-(benzo[d][1,3]dioxol-5-yl)-N-((1-(3-chlorophenyl)-3-cyclopropyl-1H-pyrazol-5-yl)methyl)propanamide]
6.8	–	CC(C(=O)NCc1cc(C(F)(F)F)nn1-c1cccc(Cl)c1)c1ccc(F)c2[nH]ncc12 (stereo not shown) [Example 195, N-((1-(3-chlorophenyl)-3-(trifluoromethyl)-1H-pyrazol-5-yl)methyl)-2-(7-fluoro-1H-indazol-4-yl)propanamide]
0.5	–	CC(C(=O)NCc1cc(C(F)(F)F)nn1-c1cccc(Cl)c1)c1ccc2cccnc2c1 (stereo not shown) [Example 72, N-((1-(3-chlorophenyl)-3-(trifluoromethyl)-1H-pyrazol-5-yl)methyl)-2-(quinolin-7-yl)propanamide]
34	–	CC(C)(C)c1cc(CNC(=O)Nc2ccc3c(c2)CCC3)n(-c2cccc(F)c2)n1 [Example 176, 1-((3-tert-butyl-1-(3-fluorophenyl)-1H-pyrazol-5-yl)methyl)-3-(2,3-dihydro-1H-inden-5-yl)urea]
0.5	–	CC(C)(C)c1cc(CNC(=O)Nc2cccc3ccncc23)n(-c2cccc(Cl)c2)n1 [Example 108, 1-((3-tert-butyl-1-(3-chlorophenyl)-1H-pyrazol-5-yl)methyl)-3-(isoquinolin-8-yl)urea]
1.6	–	CC(C(=O)NCc1cc(C(C)(C)C)nn1-c1cccc(Cl)c1)c1cc(F)cc2[nH]ncc12 (stereo not shown) [Example 193, N-((3-tert-butyl-1-(3-chlorophenyl)-1H-pyrazol-5-yl)methyl)-2-(6-fluoro-1H-indazol-4-yl)propanamide]
8.1	–	CC(C(=O)NCc1cc(C(F)(F)F)nn1-c1cccc(Cl)c1)c1cccc2cn[nH]c12 (stereo not shown) [Example 210, N-((1-(3-chlorophenyl)-3-(trifluoromethyl)-1H-pyrazol-5-yl)methyl)-2-(1H-indazol-7-yl)propanamide]
–	AG	CC(C)(C)c1cc(CNC(=O)Nc2ccc3c(c2)OC(F)(F)O3)n(-c2cccc(Cl)c2)n1 [Example 187, 1-((3-tert-butyl-1-(3-chlorophenyl)-1H-pyrazol-5-yl)methyl)-3-(2,2-difluorobenzo[d][1,3]dioxol-5-yl)urea]
38.4	–	COc1ccc(-n2nc(C(F)(F)F)cc2CNC(=O)Nc2ccc3c(c2)CCC3)cc1 [Example 178, 1-(2,3-dihydro-1H-inden-5-yl)-3-((1-(4-methoxyphenyl)-3-(trifluoromethyl)-1H-pyrazol-5-yl)methyl)urea]
21.5	–	CC(C(=O)NCc1cc(C(F)(F)F)nn1-c1cccc(Cl)c1)c1cccc2c1ccn2C (stereo not shown) [Example 26, N-((1-(3-chlorophenyl)-3-(trifluoromethyl)-1H-pyrazol-5-yl)methyl)-2-(1-methyl-1H-indol-4-yl)propanamide]
0.4	pAG	CC(C(=O)NCc1cc(C(F)(F)F)nn1-c1cccc(Cl)c1)c1cccc2c1CCC2=O (stereo not shown) [Example 206, N-((1-(3-chlorophenyl)-3-(trifluoromethyl)-1H-pyrazol-5-yl)methyl)-2-(1-oxo-2,3-dihydro-1H-inden-4-yl)propanamide]
–	AG	CC(C(=O)NCc1cc(C(F)(F)F)nn1-c1cccc(Cl)c1)c1cccc2c1ccc[n+]2[O-] (stereo not shown) [Example 198, 5-(1-((1-(3-chlorophenyl)-3-(trifluoromethyl)-1H-pyrazol-5-yl)methylamino)-1-oxopropan-2-yl)quinolin 1-oxide]
5.9	–	CC(C)(C)c1cc(CNC(=O)Cc2ccc3c(c2)OCCO3)n(-c2cccc(Cl)c2)n1 [Example 188, N-((3-tert-butyl-1-(3-chlorophenyl)-1H-pyrazol-5-yl)methyl)-2-(2,3-dihydrobenzo[b][1,4]dioxin-6-yl)acetamide]
0.6	pAG	CC(C(=O)NCc1cc(C(F)(F)F)nn1-c1cccc(Cl)c1)c1ccc2c(cnn2S(C)(=O)=O)c1 (stereo not shown) [Example 191, N-((1-(3-chlorophenyl)-3-(trifluoromethyl)-1H-pyrazol-5-yl)methyl)-2-(1-(methylsulfonyl)-1H-indazol-5-yl)propanamide]
66.2	–	CC(C(=O)NCc1cc(C(F)(F)F)nn1C1CCCCC1)c1ccc2c(c1)OCCO2 (stereo not shown) [Example 184, N-((1-cyclohexyl-3-(trifluoromethyl)-1H-pyrazol-5-yl)methyl)-2-(2,3-dihydrobenzo[b][1,4]dioxin-6-yl)propanamide]
5.5	–	CC(C(=O)NCc1cc(C(C)(C)C)nn1-c1cccc(Cl)c1)c1cccc2[nH]ccc12 (stereo not shown) [Example 25, N-((3-tert-butyl-1-(3-chlorophenyl)-1H-pyrazol-5-yl)methyl)-2-(1H-indol-4-yl)propanamide]
5.8	–	CC(C(=O)NCc1cc(C(F)(F)F)nn1-c1cccc(Cl)c1)c1cccc2c(F)cccc12 (stereo not shown) [Example 197, N-((1-(3-chlorophenyl)-3-(trifluoromethyl)-1H-pyrazol-5-yl)methyl)-2-(5-fluoronaphthalen-1-yl)propanamide]
36.3	–	O=C(NCc1cc(C(F)(F)F)nn1-c1ccc(C(F)(F)F)cc1)Nc1ccc2c(c1)CCC2 [Example 179, 1-(2,3-dihydro-1H-inden-5-yl)-3-((3-(trifluoromethyl)-1-(4-(trifluoromethyl)phenyl)-1H-pyrazol-5-yl)methyl)urea]
10.3	–	CC(C)(C)c1cc(CNC(=O)Nc2ccc3c(c2)CCC3)n(-c2ccc(F)c(Cl)c2)n1 [Example 177, 1-((3-tert-butyl-1-(3-chloro-4-fluorophenyl)-1H-pyrazol-5-yl)methyl)-3-(2,3-dihydro-1H-inden-5-yl)urea]
12.8	–	CC(C(=O)NCc1cc(C(F)(F)F)nn1-c1cccc(Cl)c1)c1ccc2c(c1)C(=O)CC2 (stereo not shown) [Example 6, N-((1-(3-chlorophenyl)-3-(trifluoromethyl)-1H-pyrazol-5-yl)methyl)-2-(3-oxo-2,3-dihydro-1H-inden-5-yl)propanamide]
0.8	–	O=C(NCc1cc(C(F)(F)F)nn1-c1cccc(Cl)c1)Nc1c(Cl)ccc2[nH]ncc12 [Example 205, 1-(5-chloro-1H-indazol-4-yl)-3-((1-(3-chlorophenyl)-3-(trifluoromethyl)-1H-pyrazol-5-yl)methyl)urea]
75.8	–	O=C(NCc1cc(C(F)(F)F)nn1-c1ccc(Cl)cc1)Nc1ccc2c(c1)CCC2 [Example 174, 1-((1-(4-chlorophenyl)-3-(trifluoromethyl)-1H-pyrazol-5-yl)methyl)-3-(2,3-dihydro-1H-inden-5-yl)urea]
35.9	–	Cc1ccc(-n2nc(C(F)(F)F)cc2CNC(=O)Nc2ccc3c(c2)CCC3)cc1C [Example 181, 1-(2,3-dihydro-1H-inden-5-yl)-3-((1-(3,4-dimethylphenyl)-3-(trifluoromethyl)-1H-pyrazol-5-yl)methyl)urea]
4	–	CC(C(=O)NCc1cc(C(F)(F)F)nn1-c1cccc(Cl)c1)c1ccc2ncsc2c1 (stereo not shown) [Example 42, 2-(benzo[d]thiazol-6-yl)-N-((1-(3-chlorophenyl)-3-(trifluoromethyl)-1H-pyrazol-5-yl)methyl)propanamide]
5.2	–	Cc1cc2c(C(C)C(=O)NCc3cc(C(F)(F)F)nn3-c3cccc(Cl)c3)cccc2c(C)n1 (stereo not shown) [Example 67, N-((1-(3-chlorophenyl)-3-(trifluoromethyl)-1H-pyrazol-5-yl)methyl)-2-(1,3-dimethylisoquinolin-5-yl)propanamide]
